pIC50: −log10 of the molar value.
Biological target: T1, TGF R1 kinase (Homo sapiens, UniProt P36897)
T1 sequence (P36897 34-503): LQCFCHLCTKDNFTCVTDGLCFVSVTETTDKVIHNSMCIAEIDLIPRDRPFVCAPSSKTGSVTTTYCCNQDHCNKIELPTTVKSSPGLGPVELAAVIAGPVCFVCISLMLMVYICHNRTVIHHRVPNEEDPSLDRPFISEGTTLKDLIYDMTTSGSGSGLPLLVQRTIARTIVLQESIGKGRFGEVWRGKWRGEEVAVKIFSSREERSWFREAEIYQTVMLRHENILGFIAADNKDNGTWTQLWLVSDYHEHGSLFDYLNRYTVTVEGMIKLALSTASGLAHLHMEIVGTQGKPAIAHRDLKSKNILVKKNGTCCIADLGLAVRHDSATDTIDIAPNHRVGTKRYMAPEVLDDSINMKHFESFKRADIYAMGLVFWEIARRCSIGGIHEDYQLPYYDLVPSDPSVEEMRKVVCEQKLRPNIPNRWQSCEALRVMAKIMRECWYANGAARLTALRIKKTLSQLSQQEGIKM
Assay: TGF-β inhibition assay: phosphorylation of the substrate casein by TGF R1 kinase
Assay type: biochemical
Settings: table names no assay; casein assay of Example 2: 2.5 μM ATP, 100 μM casein, 6.4 nM TGF R1 kinase
Method: Invention compounds were tested for their abilities to inhibit the phosphorylation of the substrate casein. The assay was conducted as follows: Compound dilutions and reagents were prepared fresh daily. Compounds were diluted from DMSO stock solutions to 2 times the desired assay concentration, keeping final DMSO concentration in the assay less than or equal to 1%. TGF RI kinase was diluted to 4 times the desired assay concentration in buffer and DTT. ATP and casein were diluted into 4× reaction buffer, and gamma-^32P-ATP was added at 50 μCi/mL.
The assay was performed by adding 10 μl of the enzyme to 20 μl of the compound solution. The reaction was initiated by the addition of 10 μl of the casein/ATP mix. Final assay conditions included 2.5 μM ATP, 100 μM casein, 6.4 nM TGF R1 kinase, and […] in 20 mM Tris buffer, pH 7.5. The reactions were incubated at room temperature for 45 minutes. The reactions were then stopped by transferring 23 μl of reaction mixture onto a phosphocellulose 96-well filter plate, which had been pre-wetted with 15 μl of 0.25M H3PO4 per well. After 5 minutes, the wells were washed 4× with 75 mM H3PO4 and once with 95% ethanol. The plate was dried, scintillation cocktail was added to each well, and the wells were counted in a Packard TopCount microplate scintillation counter. The ability of a compound to inhibit the enzyme was determined by comparing the counts obtained in the presence of the compound to those of the positive control (in the absence of compound) and the negative control (in the absence of enzyme).
In both of the assays referenced above, IC50 values can be determined with curve-fitting plots available with common software packages. Approximate IC50 values can be calculated using formula: IC50 (app)=A×i/(1−A) where A=fractional activity and i=total inhibitor concentration.

pIC50 | SMILES
5.61 | O=C(NCCN1CCCCC1)c1cnccc1Nc1nc(-c2cc(Cl)ccc2F)nc2c1CCC2 [Compound 78]
6.15 | O=C(NCCN1CCCC1)c1cnccc1Nc1nc(-c2cc(Cl)ccc2F)nc2c1CCC2 [Compound 75]
7.28 | NC(=O)c1cnccc1Nc1nc(-c2cc(Cl)ccc2F)nc2c1CCC2 [Compound 21]
6.58 | CCOC(=O)c1cnccc1Nc1nc(-c2cc(Cl)ccc2F)nc2c1C(C)CC2 (stereo not drawn) [Compound 48, 4-[2-(5-Chloro-2-fluoro-phenyl)-5-methyl-6,7-dihydro-5H-cyclopentapyrimidin-4-ylamino]-nicotinic acid ethyl ester]
5.65 | NC(=O)c1cnccc1Nc1nc(-c2cc(Cl)ccc2F)nc2c1COC2 [Compound 34, 4-[2-(5-Chloro-2-fluoro-phenyl)-5,7-dihydro-furo[3,4-d]pyrimidin-4-ylamino]-nicotinic amide]
6.51 | CN1CCCC1CCNC(=O)c1cnccc1Nc1nc(-c2cc(Cl)ccc2F)nc2c1CCC2 (stereo not drawn) [Compound 73]
6.54 | CNC(=O)c1cnccc1Nc1nc(-c2ccccc2)nc2c1CCC2 [Compound 68]
6.28 | O=C(NCCCN1CCOCC1)c1cnccc1Nc1nc(-c2cc(Cl)ccc2F)nc2c1CCC2 [Compound 70]
6.11 | Cc1noc2nc(-c3cccc(Cl)c3)nc(Nc3ccncc3)c12 [Compound 3]
5.86 | Cc1noc2nc(-c3ccccc3F)nc(Nc3ccncc3)c12 [Compound 12]
5.87 | CCc1noc2nc(-c3cc(Cl)ccc3F)nc(Nc3ccncc3)c12 [Compound 11]
7.89 | CC1CCc2nc(-c3cc(Cl)ccc3F)nc(Nc3ccncc3C(N)=O)c21 (stereo not drawn) [Compound 46]
6.99 | CNC(=O)c1cnccc1Nc1nc(-c2cc(Cl)ccc2F)nc2c1CC(C)(C)C2 [Compound 63]
7.11 | CCN(CC)CCNC(=O)c1cnccc1Nc1nc(-c2cc(Cl)ccc2F)nc2c1CCCC2 [Compound 59]
6.17 | O=C(NC1CC1)c1cnccc1Nc1nc(-c2cc(Cl)ccc2F)nc2c1CCCC2 [Compound 45, 4-[2-(5-Chloro-2-fluorophenyl)-5,6,7,8-tetrahydroquinazolin-4-ylamino]-N-cyclopropyl nicotinamide]
7.03 | Cc1cnccc1Nc1nc(-c2cc(Cl)ccc2F)nc2c1CCC2 [Compound 20]
5.26 | CCN(CC)CCNC(=O)c1cnccc1Nc1nc(-c2ccccc2F)nc2c1CCC2 [Compound 79]
7.20 | NNC(=O)c1cnccc1Nc1nc(-c2cc(Cl)ccc2F)nc2c1CCC2 [Compound 58]
5.19 | O=C(NCCCN1CCCC1=O)c1cnccc1Nc1nc(-c2cc(Cl)ccc2F)nc2c1CCC2 [Compound 72]

pIC50 | SMILES
5.74 | C[C@@H](O)CNC(=O)c1cnccc1Nc1nc(-c2cc(Cl)ccc2F)nc2c1CC(C)(C)C2 [Compound 64]
6.77 | Fc1ccc(Cl)cc1-c1nc2c(c(Nc3ccncc3C(F)(F)F)n1)CCC2 [Compound 36]
5.65 | O=C(c1cnccc1Nc1nc(-c2cc(Cl)ccc2F)nc2c1CCC2)N1CCCC1 [Compound 37]
5.56 | CC1(C)Cc2nc(-c3cc(Cl)ccc3F)nc(Nc3ccncc3C(=O)NC[C@H](O)CO)c2C1 [Compound 65]
5.03 | c1ccc(-c2nc(Nc3ccncc3)c3cc[nH]c3n2)cc1 [Compound 2, 4-(4-aminopyridyl)-2-phenyl pyrollo[2,3d]pyrimidine]
5.19 | CCOC(=O)c1cnccc1Nc1nc(-c2cc(Cl)ccc2F)nc2c1CCC2 [Compound 32]
6.07 | O=C(NCCCn1ccnc1)c1cnccc1Nc1nc(-c2cc(Cl)ccc2F)nc2c1CCC2 [Compound 71]
5.88 | O=C(NCC1CC1)c1cnccc1Nc1nc(-c2cc(Cl)ccc2F)nc2c1CCC2 [Compound 42]
4.89 | Cc1noc2nc(-c3ccccc3Cl)nc(Nc3ccncc3)c12 [Compound 14]
6.07 | Cc1cnccc1Nc1nc(-c2cc(Cl)ccc2F)nn2cccc12 [Compound 80]
5.87 | O=C(NC1CC1)c1cnccc1Nc1nc(-c2cc(Cl)ccc2F)nc2c1CCC2 [Compound 41]
5.05 | Fc1ccccc1-c1cc(Nc2ccncc2)n2ncnc2n1 [Compound 82]
7.07 | CC1CCc2nc(-c3cc(Cl)ccc3F)nc(Nc3ccncc3C(=O)O)c21 (stereo not drawn) [Compound 49, 4-[2-(5-Chloro-2-fluorophenyl)-5-methyl-6,7-dihydro-5H-cyclopentapyrimidin-4-ylamino]-nicotinic acid]
5.61 | Cc1noc2nc(-c3cccc(I)c3)nc(Nc3ccncc3)c12 [Compound 10]
7.04 | CN(C)CCCNC(=O)c1cnccc1Nc1nc(-c2cc(Cl)ccc2F)nc2c1CCC2 [Compound 69]
5.93 | Cc1cnccc1Nc1nc(-c2cc(Cl)ccc2F)nc2c1CCNC2 [Compound 23]
6.44 | CNCCNC(=O)c1cnccc1Nc1nc(-c2cc(Cl)ccc2F)nc2c1CCC2 [Compound 56]
6.60 | Cc1cnccc1Nc1nc(-c2cc(Cl)ccc2F)nc2c1CCCC2 [Compound 38, [2-(5-Chloro-2-fluorophenyl)-5,6,7,8-tetrahydroquinazolin-4-yl]-(3-methylpyridin-4-yl)-amine]
6.69 | CC1(C)Cc2nc(-c3cc(Cl)ccc3F)nc(Nc3ccncc3C(N)=O)c2C1 [Compound 62, 4-[2-(5-Chloro-2-fluoro-phenyl)-6,6-dimethyl-6,7-dihydro-5H-cyclopentapyrimidin-4-ylamino]-nicotinamide]

pIC50 | SMILES
6.98 | Cc1cnccc1Nc1nc(-c2cc(Cl)ccc2F)nc2c1C(C)CC2 (stereo not drawn) [Compound 43, [2-(5-Chloro-2-fluorophenyl)-5-methyl-6,7-dihydro-5H-cyclopentapyrimidin-4-yl]-(3-methyl-pyridin-4-yl)-amine]
4.79 | Cc1cnccc1Nc1nc(-c2cc(Cl)ccc2F)nc2c1CN(Cc1ccccc1)CC2 [Compound 30]
6.94 | CC1CCCCN1CCCNC(=O)c1cnccc1Nc1nc(-c2cc(Cl)ccc2F)nc2c1CCC2 (stereo not drawn) [Compound 74]
7.30 | CNC(=O)c1cnccc1Nc1nc(-c2cc(Cl)ccc2F)nc2c1CCCC2 [Compound 40]
6.36 | C[C@H](O)CNC(=O)c1cnccc1Nc1nc(-c2cc(Cl)ccc2F)nc2c1CCCC2 [Compound 57]
5.20 | Cc1cnccc1Nc1nc(-c2cc(Cl)ccc2F)nc2c1CNCC2 [Compound 22]
5.99 | Cc1noc2nc(-c3cccc(Br)c3)nc(Nc3ccncc3)c12 [Compound 15]
4.77 | Fc1ccccc1-c1cc(Nc2ccncn2)n2ncnc2n1 [Compound 83]
6.83 | CNC(=O)c1cnccc1Nc1nc(-c2cc(Cl)ccc2F)nc2c1OCC2 [Compound 44, 4-[2-(5-Chloro-2-fluorophenyl)-6,7-dihydrofuro[3,2-d]pyrimidin-4-ylamino]-N-methyl nicotinamide]
6.62 | C[C@H](O)CNC(=O)c1cnccc1Nc1nc(-c2cc(Cl)ccc2F)nc2c1CCC2 [Compound 52]
6.19 | C[C@@H](O)CNC(=O)c1cnccc1Nc1nc(-c2cc(Cl)ccc2F)nc2c1CCC2 [Compound 55]
5.05 | COC(=O)c1cnccc1Nc1nc(-c2ccccc2)nc2c1CCC2 [Compound 67]
6.31 | O=C(NO)c1cnccc1Nc1nc(-c2cc(Cl)ccc2F)nc2c1CCC2 [Compound 54]
5.90 | CNCCNC(=O)c1cnccc1Nc1nc(-c2cc(Cl)ccc2F)nc2c1CC(C)(C)C2 [Compound 66]
5.30 | CCc1noc2nc(-c3cccc(Cl)c3)nc(Nc3ccncc3)c12 [Compound 7]
6.38 | C[C@H](O)CNC(=O)c1cnccc1Nc1nc(-c2cc(Cl)ccc2F)nc2c1CCC2 [Compound 53]
5.51 | Cc1cnccc1Nc1nc(-c2cc(Cl)ccc2F)nc2c1COC2 [Compound 33, [2-(5-Chloro-2-fluorophenyl)-5,7-dihydrofuro[3,4-d]pyrimidin-4-yl]-(3-methyl-pyridin-4-yl)-amine]
5.33 | Cc1noc2nc(-c3ccc(Cl)cc3)nc(Nc3ccncc3)c12 [Compound 17]
7.84 | CNC(=O)c1cnccc1Nc1nc(-c2cc(Cl)ccc2F)nc2c1C(C)CC2 (stereo not drawn) [Compound 47, 4-[2-(5-Chloro-2-fluorophenyl)-5-methyl-6,7-dihydro-5H-cyclopentapyrimidin-4-ylamino]-N-methyl-nicotinamide]
